Source: the NIST ThermoML archive (doi:10.1007/s10765-005-8096-3)

Test: refractive index (Na D-line) (dimensionless); xn = mol fraction of the nth substance listed
Details: 101 kPa, Liquid, Standard Abbe refractometry

CCCCOC(C)=O [butyl ethanoate] + CCc1ccccc1
refractive index
Details	293.15 K	298.15 K	303.15 K	308.15 K	313.15 K
x1 = 0.0544	1.48984	1.48716	1.48442	1.48172	1.47899
x1 = 0.1008	1.48485	1.48219	1.47946	1.47673	1.47401
x1 = 0.1488	1.4796	1.47693	1.47418	1.47152	1.46884
x1 = 0.2024	1.47382	1.47116	1.46843	1.4658	1.4631
x1 = 0.254	1.46832	1.46568	1.46302	1.46037	1.45768
x1 = 0.2929	1.46417	1.46155	1.4589	1.45623	1.45354
x1 = 0.3526	1.45799	1.45536	1.45263	1.45	1.44729
x1 = 0.3989	1.45314	1.45054	1.44782	1.44526	1.44253
x1 = 0.4448	1.44842	1.44582	1.44315	1.44053	1.43785
x1 = 0.5021	1.44254	1.43999	1.43733	1.43472	1.43207
x1 = 0.5505	1.43764	1.43508	1.43242	1.42983	1.4272
x1 = 0.6041	1.43221	1.42967	1.42703	1.42449	1.42191
x1 = 0.6456	1.42806	1.42552	1.42292	1.42036	1.41779
x1 = 0.7003	1.42266	1.42015	1.41759	1.41507	1.41252
x1 = 0.7555	1.41729	1.41481	1.41224	1.40974	1.4072
x1 = 0.8016	1.41282	1.41035	1.40784	1.40537	1.40283
x1 = 0.8511	1.40813	1.40566	1.4032	1.40068	1.39815
x1 = 0.9009	1.40339	1.40097	1.39849	1.39597	1.39349
x1 = 0.9505	1.39875	1.39633	1.39386	1.39139	1.38895
